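Grown in 96-well plates, cells were treated for 48 hours with each compound at five concentrations. Insufficient inhibition: endpoint recorded as highest concentration tested. GI50 is the concentration that inhibits growth by half.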 Activity calls are given as the source filed them. Cut-off read from the data, not from the text of the source: active = GI50 up to about 1.1 µM and inactive = higher.
Assays:
Test in all cases: NCI tumour cell line growth inhibition, 48 h
[1] = tested on: OVCAR-5
[2] = tested on: 786-0
[3] = tested on: UO-31
[4] = tested on: NCI-H226
[5] = tested on: HOP-62
[6] = tested on: SK-MEL-2
[7] = tested on: KM12
[8] = tested on: CCRF-CEM
[9] = tested on: OVCAR-3
[10] = tested on: NCI-H23
[11] = tested on: LOX IMVI
[12] = tested on: SF-295
[13] = tested on: MOLT-4
[14] = tested on: NCI-H460
[15] = tested on: EKVX
[16] = tested on: A549
[17] = tested on: COLO 205

Measured: GI50

Clc1ccccc1C(n1ncc2ccccc21)n1ncc2ccccc21
inactive: [1] 37.7 µM | [2] 65.9 µM | [3] 31.3 µM | [4] 33.7 µM | [5] > 100 µM | [6] 33.3 µM | [7] 25.7 µM | [8] 28.5 µM | [9] 80.4 µM | [10] 24 µM | [11] 49.9 µM | [12] 64.6 µM | [13] 18.9 µM | [14] 35.8 µM

COc1cc(-c2cc(O)c3cc4c(cc3n2)OCO4)cc(OC)c1OC
inactive: [15] > 100 µM | [2] > 100 µM | [3] > 100 µM | [16] > 100 µM | [5] 24.5 µM | [6] 92.7 µM | [7] > 100 µM | [8] > 100 µM | [10] 56.2 µM | [17] > 100 µM | [11] 59.3 µM | [13] > 100 µM | [14] > 100 µM

O=C(CCc1ccccc1)CC1OC(=O)C(Cl)=C1Cl (configuration not stated)
inactive: [1] 20 µM | [15] 38.9 µM | [2] 19.1 µM | [3] 19.3 µM | [16] 43.4 µM | [5] 26.2 µM | [6] 19.1 µM | [7] 17.5 µM | [8] 29.6 µM | [9] 20.3 µM | [10] 19.1 µM | [17] 17.2 µM | [11] 18.6 µM | [12] 27.4 µM | [13] 33 µM | [14] 33.5 µM

N#CC1C(=O)C(=O)N(c2ccccc2)C1=O (configuration not stated)
inactive: [1] > 100 µM | [15] > 100 µM | [2] > 100 µM | [3] > 100 µM | [4] > 100 µM | [5] > 100 µM | [6] > 100 µM | [7] > 100 µM | [9] > 100 µM | [10] > 100 µM | [17] > 100 µM | [11] > 100 µM | [12] > 100 µM | [14] > 100 µM

CCOC(=O)C1S/C(=N\c2ccc(Cl)cc2Cl)N=C1C (configuration not stated)
inactive: [1] > 100 µM | [15] > 100 µM | [2] 53.3 µM | [3] > 100 µM | [4] > 100 µM | [16] 76.4 µM | [5] 51.9 µM | [6] 61.5 µM | [7] > 100 µM | [9] 96.6 µM | [10] 39.4 µM | [17] > 100 µM | [11] 74.5 µM | [12] 32.1 µM | [14] 86.5 µM

From ChEMBL document CHEMBL1201862, “PubChem BioAssay data set” (2004)
